How the values were obtained:
[1] = parameters: method as in earlier work; conditions: literature lipophilicity of RP-TLC reference compounds; cited from earlier work
[2] = Experimental lipophilicity by RP-TLC; conditions: RP-TLC, RP-18 F254S, acetone / Tris buffer pH 7.4, extrapolated to zero acetone
Procedure: The retention mechanism in the RP-TLC method is based on the partition of substances between two phases. Silica gel (RP-18 F254S plates) was used as the hydrophobic stationary phase. In contrast, the hydrophilic mobile phase was a binary mixture of acetone and an aqueous solution of TRIS buffer.
Chromatographic analysis by RP-TLC was performed an aluminum backed silica gel RP-18 F254S
phenylanthracene] and tested betulin derivatives were dissolved in chloroform to obtain a
concentration of 2 mg/mL. The prepared solutions were spotted on the plates in the amount of 2 μL.
the next step, the chromatographic chambers were saturated 30 min of the appropriate mobile phases
consisting of a mixture of acetone (Merck, Darmstadt, Germany) and aqueous solution of buffer Tris
[(tris-hydroxymethyl)aminomethane] (Fluka, Loughborough, 0.2 M, pH 7.4). The amount of acetone in
the mobile phase were in the range 60-90% in 5% increments. The chromatograms were developed for
each compound in triplicate at room temperature. The spots of betulin derivatives were visualized by
spraying the plates with the mixture of ethanol and concentrated sulfuric acid (10:1, v/v) and heating
The retardation factor (Rf) were calculated according to the equation below:
(a-the distance from the start line to the spot center, b-the distance from the start line to the mobile
The RM values were calculated by the Bate-Smith and Westall equation:
The RM0 parameters were obtained by extrapolating on the acetone content to zero, according to the
Soczewiński-Wachtmeister equation:
(C-the percentage concentration of acetone in the mobile phase, b-the slope of the regression plot).
The calibration curve was determined using eight reference compounds.
compounds were determined under the same conditions as for betulin derivatives (Table S1).

[3] = Solubility in DMSO for stock preparation; format: physicochemical
[4] = system: MV4-11 cells; assay: Antiproliferative activity, MTT assay, MV4-11 leukemia cells; format: cell-based, human; conditions: for IC50: Homo sapiens, MV4-11, 72 h, 72 h incubation, MTT, read-out: Growth inhibition IC50, leukemia cell line MV4-11; for Calculated Selectivity Index SI, MV4-11: IC50 BALB/3T3 / IC50 MV4-11
Procedure: (§3) The in vitro antiproliferative activity tests have been conducted against four human cancer cell lines: MV4-11 biphenotypic B myelomonocytic leukemia cell line, A549 lung carcinoma cell line, MCF-7 breast carcinoma cell line, PC-3 prostate carcinoma cell line and one normal BALB/3T3 mouse fibroblast cell line. […] All tested compounds were dissolved in DMSO and diluted with a culture medium to a desired concentration. […] Cell viability, after 72 h incubation of the cells with tested compounds, was determined using tetrazolinum dye MTT (for MV4-11 cells) or sulforhodamine B (SRB test, for MCF-7, A549, PC-3, BALB/3T3 cells) colorimetric assays.
(§4) Human biphenotypic B myelomonocytic leukemia MV4-11, murine normal fibroblast BALB/3T3 cells were obtained from the American Type Culture Collection (USA); and human lung carcinoma A549, human breast cancer MCF-7 and human prostate adenocarcinoma PC-3 were obtained from the European Collection of Authenticated Cell Cultures (UK).
(§5) MV4-11 and PC-3 cells were cultured in RPMI 1640 medium (HIIET PAS, Poland) with 1.0 mM sodium pyruvate (only MV4-11) and 10% fetal bovine serum (FBS) (all from Merck, Darmstadt, Germany). A549 cells were cultured in RPMI 1640 + Opti-MEM (1:1) ((HIIET PAS, Poland and Gibco, UK) supplemented with 5% fetal bovine serum (Merck, Darmstadt, Germany). The MCF-7 cells were cultured in Eagle medium (HIIET PAS, Poland) supplemented with 8 mg/mL of insulin and 1% of MEM NON-Essential amino acid (all Merck, Darmstadt, Germany). Normal fibroblasts BALB/3T3 cells were cultured in DMEM medium (Gibco, UK) supplemented with 10% fetal bovine serum and 1.0 mM sodium pyruvate (all from Merck, Darmstadt, Germany). All culture media were supplemented with 2 mM L-glutamine (Merck, Darmstadt, Germany), 100 units/ml penicillin, (Polfa Tarchomin S.A., Poland) and 100 µg/mL streptomycin (Merck, Darmstadt, Germany). All cell lines were grown at 37 °C in a 5% CO2 humidified atmosphere.
(§6) The solutions of the tested compounds were prepared by dissolving the substances in DMSO to the desired concentration (25 mM). Then, the tested compounds were diluted in a culture medium to reach the final concentrations. Before addition of the tested compounds (24 h prior), the cells were plated in 96-well plates (Sarstedt, Germany) at a density of 1 × 10^4, 0.75 × 10^4 (MCF-7) or 0.5 × 10^4 (A549) cells per well. The assay was performed after 72 h of exposure to 100, 10, 1 and 0.1 µM concentration of the tested agents. […] The SRB method determined the amount of cellular proteins. The concentration of the colorimetric probe (formazan in MTT or sulforhodamine B in SRB method) was determined by an optical density measurement using a standard microplate reader for 96-well plates. After optical density measurement, using the data of the mean absorbances of control cells (AbCC), the absorbances of cells treated by the tested compound (AbTr) (for each concentration separately) and the absorbance of the cultured medium (AbCM) the % of cell proliferation inhibition was calculated according to the following formula: % inh. cells proliferation=100−AbTr−AbCM/AbCC−AbCM×100
(§7) From the obtained proliferation inhibition values, effect-concentration curves of the compound used were plotted. […] IC50 values were calculated for each experiment separately using the Prolab-3 system based on Cheburator 0.4 software [36] and mean values (±SD) are presented. Each compound in each concentration was tested in triplicate in a single experiment, which was repeated 3–5 times.

[5] = Cytotoxicity, SRB assay, normal BALB/3T3 fibroblasts; conditions: mouse
Procedure: as §3, §4, §5, §6, §7

[6] = system: A549 cell line; assay: Antiproliferative activity, SRB assay, A549 lung carcinoma cells; conditions: for IC50: Homo sapiens, A549, 72 h, read-out: Cytotoxicity IC50 against A549 cell line; for Calculated Selectivity Index SI, A549: IC50 BALB/3T3 / IC50 A549; for Antiproliferative Activity, A549: +/− summary, IC50 vs betulin 1
Procedure: as §3, §4, §5, §6, §7

[7] = system: MCF-7 cell line; assay: Antiproliferative activity, SRB assay, MCF-7 breast carcinoma cells; conditions: for IC50: Homo sapiens, MCF7, 72 h, read-out: Cytotoxicity IC50 against MCF-7 cell line; for Calculated Selectivity Index SI, MCF-7: IC50 BALB/3T3 / IC50 MCF-7
[8] = system: PC-3 cell line; assay: Antiproliferative activity, SRB assay, PC-3 prostate carcinoma cells; conditions: for IC50: Homo sapiens, PC-3, 72 h, read-out: Cytotoxicity IC50 against PC-3 cell line; for Calculated Selectivity Index SI, PC-3: IC50 BALB/3T3 / IC50 PC-3
Procedure: as §3, §4, §5, §6, §7

[9] = system: PC-3 cells; assay: Induction of apoptosis, Annexin V/PI staining, PC-3; format: cell-based, human; conditions: about 1.5 × IC50, 72 h
Excerpt: Apoptosis is one of a cell’s natural mechanisms for programmed cell death. It plays a crucial role in homeostasis by eliminating the unwanted or unnecessary cells. One of the most important functions of apoptosis is prevention of cancer. However, cancer cells often lose the ability to enter the path of apoptosis, which allows them to survive longer and grow in an uncontrolled manner. Regardless of that, apoptosis still remains the most important molecular mechanism to combat cancer cells; therefore, research is conducted to obtain agents with the ability to selectively induce apoptosis in cancer cell lines.
The MV4-11, A549 and PC-3 cells were seeded on 24-well plates (Sarstedt, Germany) for a final volume of 1.5 mL. […] After incubation, the cells were collected and 2 × 10^5 of cells were washed twice with PBS. […] Results were analyzed using Flowing software 2.5.1. […]

[10] = system: caspase-3/7; assay: Caspase-3/7 activity (AC-DEVD-AMC substrate) in A549 cells; format: cell-based, human; parameters: key: +: plus mark represents statistically important elevated activity of caspase 3/7 compared to control
Excerpt: (§1) Caspase-3 and caspase-7 are cysteine-aspartic acid proteases that can directly execute apoptosis […] sequential activation of caspase-8 or caspase-9. Activation of these enzymes leads to apoptotic cell death; thus, measuring their activity is a good method to determine the pro-apoptotic potential of tested compounds. One of the mechanisms of betulin’s antiproliferative activity is activation of these enzymes; therefore, to further examine the mechanism of action of tested derivatives, we decided to determine their levels.
(§2) The MV4-11, A549 and PC-3 cells were seeded on 48-well plates for a final volume of 1 mL. […] After incubation, the cells were collected and centrifuged (5 min., 4 °C, 250× g). Cells were suspended in 50 µL of ice-cold lysis buffer (50 mM HEPES, 10% (w/v) sucrose, 150 mM NaCl, 2 mM EDTA and 1% (v/v) Triton X-100, pH 7.3, HIIET, Poland) and incubated 30 min. at […]. After the incubation, 40 µL of each sample was transferred to a white, 96-well plate (Corning, CA, USA) containing 160 µL of the reaction buffer (20 mM HEPES, 10 % sucrose, 100 mM NaCl, 1 mM EDTA, 10 mM DTT, 0.02 % Trition X-100, pH 7.3) (HIIET, Wroclaw, Poland) with 9 µM AC-DEVD-AMC (Cayman Chemical) fluorogenic substrate (λex = 360 nm, λem = 460 nm). The fluorescence increase correlated with the caspase-3/7 level was continuously recorded at 37 °C for 120 min using a Biotek Synergy H4 (Biokom, Warsaw, Poland). Compounds were tested in duplicates in a single experiment and each experiment was repeated at least three times independently. Results were normalized to the number of cells in each well and are reported as mean relative caspase-3/7 activity compared to the untreated control sample ± SD.

[11] = system: caspase-3/7; assay: Caspase-3/7 activity (AC-DEVD-AMC substrate) in PC-3 cells; format: cell-based, human; parameters: key to Caspase 3/7 Activity, PC-3: +: plus mark represents statistically important elevated activity of caspase 3/7 compared to control
Excerpt: as §1, §2

[12] = in vitro; conditions: mouse
Procedure: as §3, §4, §5, §6, §7

[13] = system: A549 cells; assay: Cell cycle analysis, PI staining flow cytometry, A549; format: cell-based, human; conditions: about IC50, 72 h
Procedure: The effects of the selected derivatives on the cell cycle were analyzed by flow cytometry using PI staining.
The MV4-11, A549 and PC-3 cells were seeded on 24-well plates (Sarstedt, Germany) for a final volume of 1.5 mL. […] After incubation, the cells were collected and 1 × 10^6 of cells were washed twice in cold PBS and fixed for 24 h in 70% ethanol at −20 °C, the cells were washed twice in PBS and incubated with RNAse (8 μg/mL, Fermentas, Germany) at 37 °C for 1 h. The cells were stained for 30 min. with propidium iodide (50 μg/mL, Sigma Aldrich, Germany) at 4 °C and the cellular DNA content was analyzed by flow cytometry using BD LSRFortessa cytometer (BD Bioscience, San Jose, CA, USA). Compounds at each concentration were tested at least three times independently. The obtained results were analyzed using Flowing software 2.5.1 (Cell Imaging Core, Turku Centre for Biotechnology, University of Turku and Åbo Akademi University, Turku, Finland).

[14] = system: caspase-3/7; assay: Caspase-3/7 activity (AC-DEVD-AMC substrate) in MV4-11 cells; format: cell-based, human
Excerpt: as §1
The MV4-11, A549 and PC-3 cells were seeded on 48-well plates for a final volume of 1 mL. […] After incubation, the cells were collected and centrifuged (5 min., 4 °C, 250× g). Cells were suspended in 50 µL of ice-cold lysis buffer (50 mM HEPES, 10% (w/v) sucrose, 150 mM NaCl, 2 mM EDTA and 1% (v/v) Triton X-100, pH 7.3, HIIET, Poland) and incubated 30 min. at 40 °C. […] The fluorescence increase correlated with the caspase-3/7 level was continuously recorded at 37 °C for 120 min using a Biotek Synergy H4 (Biokom, Warsaw, Poland). […]

[15] = 1.5 × IC50, 24 h, several-fold lower at 72 h

| Structure (SMILES) | RM0 [2] | solubility in DMSO [3] | IC50 [4] | Calculated Selectivity Index SI, MV4-11 [4] | IC50 [6] | Calculated Selectivity Index SI, A549 [6] | IC50 [7] | Calculated Selectivity Index SI, MCF-7 [7] | IC50 [8] | Calculated Selectivity Index SI, PC-3 [8] | IC50 at 72 h [12] | further results |
| --- | --- | --- | --- | --- | --- | --- | --- | --- | --- | --- | --- | --- |
| c1ccc(CCc2ccccc2)cc1 [dibenzyl, reference compound] | 3.54 |  |  |  |  |  |  |  |  |  |  | LogPlit [1]: 4.49 |
| C=C(C)[C@@H]1CC[C@]2(COC(=O)c3cccc(C(=O)N4CCCCC4)c3)CC[C@]3(C)C(CCC4[C@@]5(C)CC[C@H](O)C(C)(C)C5CC[C@]43C)C12 (stereo partly drawn) [7c] | 5.773 | not soluble in DMSO |  |  |  |  |  |  |  |  |  |  |
| COc1cccc2c1C(=O)c1c(O)c3c(c(O)c1C2=O)C[C@@](O)(C(=O)CO)C[C@@H]3O[C@H]1C[C@H](N)[C@H](O)[C@H](C)O1 [Doxorubicin, doxorubicin, reference compound] |  |  | 0.01 µM | 18.0 | 0.04 µM | 4.5 | 0.08 µM | 2.3 | 0.43 µM | 0.4 |  | IC50 at 72 h ([5]; BALB/3T3 normal fibroblast cells): 0.18 µM |
| C=C(C)[C@@H]1CC[C@]2(CO)CC[C@]3(C)[C@H](CC[C@@H]4[C@@]5(C)CC[C@H](O)C(C)(C)[C@@H]5CC[C@]43C)[C@@H]12 [Betulin 1, betulin] |  |  | 18.2 µM | 1.8 | 15.5 µM | 2.0 | 38.8 µM | 0.8 | 32.5 µM | 1.0 |  | IC50 at 72 h [5]: 31.8 µM |
| C=C(C)C1CCC2(COC(=O)C=C(C)C(=O)N3CCCCC3)CCC3(C)C(CCC4C5(C)CCC(O)C(C)(C)C5CCC43C)C12 (stereo not drawn) [3c] | 5.650 | not soluble in DMSO |  |  |  |  |  |  |  |  |  |  |
| C=C(C)[C@@H]1CC[C@]2(COC(=O)CCC(=O)N3CCOCC3)CC[C@]3(C)C(CCC4[C@@]5(C)CC[C@H](O)C(C)(C)C5CC[C@]43C)C12 (stereo partly drawn) [2b] | 5.024 |  | 3.94 µM | 6.4 | 8.03 µM | 3.1 | 19.3 µM | 1.3 | 17.9 µM | 1.4 | 25 µM | Induction of apoptosis (AnV/PI), PC-3, 72 h [9]: shifting the ratio of the living cell population towards apoptotic and necrotic ones; caspase 3/7 activity, A549 [10, 15]: hugely elevated caspase 3/7 activity; caspase 3/7 activity, A549 ([10]; +/− summary vs control): +; caspase-3/7 activity, PC-3 ([11]; 1.5 × IC50, 24 and 72 h): very high level of caspase-3/7 after 24 and 72 h; Caspase 3/7 Activity, PC-3 ([11]; +/− summary vs control): +; Antiproliferative Activity, A549 [6]: +; Antiproliferative Activity, PC-3 ([8]; +/− summary, IC50 vs betulin 1): + |
| C=C(C)[C@@H]1CC[C@]2(COC(=O)CCC(=O)N3CCCCC3)CC[C@]3(C)C(CCC4[C@@]5(C)CC[C@H](O)C(C)(C)C5CC[C@]43C)C12 (stereo partly drawn) [2c] | 5.728 |  | 5.78 µM | 5.7 | 6.98 µM | 4.7 | 22.2 µM | 1.5 | 30.9 µM | 1.1 | 32.7 µM | Influence on cell cycle, A549, 72 h [13]: induced cycle arrest in the G0/G1 phase with a decrease in the G2/M phase; caspase 3/7 activity, A549 [10, 15]: hugely elevated caspase 3/7 activity; caspase 3/7 activity, A549 ([10]; +/− summary vs control): +; caspase-3/7 levels, MV4-11, 24 h [14]: increased levels of caspase-3/7; Antiproliferative Activity, A549 [6]: + |
| C=C(C)[C@@H]1CC[C@]2(COC(=O)CCC(=O)N3CCSCC3)CC[C@]3(C)C(CCC4[C@@]5(C)CC[C@H](O)C(C)(C)C5CC[C@]43C)C12 (stereo partly drawn) [2d] | 5.898 |  | 3.16 µM | 15.8 | 32 µM | 1.6 | 50 µM | 1.0 | 50 µM | 1.0 | > 50 µM | Influence on cell cycle, A549, 72 h [13]: greater percentage of dead cells with a decrease in G2/M and G0/G1 phases; caspase-3/7 levels, MV4-11, 24 h [14]: increased levels of caspase-3/7 |
| C=C(C)[C@@H]1CC[C@]2(COC(=O)CCCC(=O)N3CCCCC3)CC[C@]3(C)C(CCC4[C@@]5(C)CC[C@H](O)C(C)(C)C5CC[C@]43C)C12 (stereo partly drawn) [4c] | 5.012 | not soluble in DMSO |  |  |  |  |  |  |  |  |  |  |
| C=C(C)[C@@H]1CC[C@]2(COC(=O)CCCCCCCCCC(=O)N3CCCCC3)CC[C@]3(C)C(CCC4[C@@]5(C)CC[C@H](O)C(C)(C)C5CC[C@]43C)C12 (stereo partly drawn) [5c] | 5.768 | not soluble in DMSO |  |  |  |  |  |  |  |  |  |  |

Reference: PMC9820118, “Betulin Acid Ester Derivatives Inhibit Cancer Cell Growth by Inducing Apoptosis through Caspase Cascade Activation: A Comprehensive In Vitro and In Silico Study” (International Journal of Molecular Sciences, 2022)
